Assay results: PubChem BioAssay AID1996
Converted amounts (≈) assume the structure as drawn.

Conditions: buffer; pH 7.4; 200.0 µM

| Structure (SMILES) | solubility kinetic [µg/mL] |
| --- | --- |
| CNCCc1ccccn1.Cl | > 31.4 |
| Cc1cnc(=O)[nH]c1SCc1cccc(C(F)(F)F)c1 | 8.3 (≈ 27.6 µM) |
| O=C(Nc1ccc(Cl)c(S(=O)(=O)N2CCOCC2)c1)c1ccc2c(c1)OCO2 | 2.6 (≈ 6.12 µM) |
| CC1CCCC(C)N1C(=O)COC(=O)/C=C/c1ccco1 (stereo not drawn) | 10 (≈ 34.3 µM) |
| O=C1Nc2ccc(Br)cc2C1(O)c1ccccc1 (stereo not drawn) | > 45.6 |
| CN(C)CCNC(=S)Nc1ccccc1C(C)(C)C | > 41.9 |
| COc1ccc(CCNC(=O)c2ccc3ccccc3n2)cc1 | 22.2 (≈ 72.5 µM) |
| Cc1cccc(C(=O)NC(C)c2ccc(-n3ccnc3)cc2)c1C (stereo not drawn) | 43 (≈ 135 µM) |
| O=C(Nn1cnc2ccccc2c1=O)c1c(F)cccc1F | > 45.2 |
| O=C(Nc1cc(C(F)(F)F)ccc1-n1cncn1)C1CC1 | > 44.4 |
| COc1ccc(NC(=S)Nc2ccc3nccnc3c2)cc1 | 22.8 (≈ 73.5 µM) |
| Cc1ccc(C(=O)C[n+]2ccccc2C)cc1[N+](=O)[O-].[Br-] | 48.3 |
| CN(CCN1CCOCC1)Cc1nc(-c2ccc3c(c2)OCO3)no1 | 48.5 (≈ 140 µM) |
| COc1cc(NC(=S)N(C)CCC#N)c(OC)cc1Cl | 38.9 (≈ 124 µM) |
| Cc1c(NC(=O)COC(=O)C2=COCCO2)cccc1[N+](=O)[O-] | > 48.3 |
| Cc1cccc(Nc2cc(=O)n(C)c(=O)[nH]2)c1 | > 34.7 |
| CC1CCCCC12NC(=O)N(CC(=O)NCCc1ccccc1)C2=O (stereo not drawn) | > 51.5 |
| COc1ccc(C(=O)CC(=O)Nc2ccc([N+](=O)[O-])cc2)cc1 | 2.6 (≈ 8.27 µM) |
| O=C(CSCCS(=O)(=O)c1ccc(Cl)cc1)Nc1ccccc1 | 3.5 (≈ 9.46 µM) |
| O=C(C1CC1)N1CCN(c2ccc([N+](=O)[O-])cc2)CC1 | > 41.3 |
| CC(=O)N1CCN(C(=O)CNC(=O)c2ccc(C)s2)CC1 | > 46.4 |
| Cc1ccc(C(=O)NC(C)C2CC3CCC2C3)cc1 (stereo not drawn) | < 0.6 |
| CC(=O)c1c(C)n(-c2ccc(C)cc2)c2ccc(O)cc12 | < 0.6 |
| CCCn1c(=O)c(C(=O)Nc2cc(C)ccn2)c(O)c2ccccc21 | < 0.2 |

| Structure (SMILES) | solubility kinetic [µg/mL] |
| --- | --- |
| O=C(NC1CCSc2ccccc21)c1ccccc1F (stereo not drawn) | 12.4 (≈ 43.2 µM) |
| Cc1csc2c(NCCCN3CCOCC3)ncnc12 | > 43.9 |
| Cc1cc(NS(=O)(=O)c2cc(Cl)sc2Cl)no1 | > 47 |
| COc1ccc(C(=O)NCCc2cnc[nH]2)cc1OC | > 41.3 |
| CN1CCCN(c2ccc([N+](=O)[O-])cc2)CC1 | > 35.3 |
| CCOC(=O)c1cc2c(=O)[nH]c(C(Cl)(Cl)Cl)nc2o1 | > 48.8 |
| N#Cc1ccccc1COC(=O)CCN=C1NS(=O)(=O)c2ccccc21 | 52.4 (≈ 142 µM) |
| CC(C)(CC(=O)O)CC(=O)NCc1c(Cl)cccc1Oc1ccccc1 | > 56.4 |
| CN(Cc1ccccc1)C(=O)CN1CCCC1=O | > 36.9 |
| COc1ccc(C(=O)O/N=C(\N)Cc2cccs2)cc1OC | > 48.1 |
| CSc1nccc(NC(=O)c2ccc(C(C)(C)C)cc2)n1 | 4.2 (≈ 13.9 µM) |
| O=C(Nc1nccs1)c1ccc(Br)s1 | 5.6 (≈ 19.4 µM) |
| CCc1nc2sc3c(Cl)ncnc3c2c2c1CCCC2 | < 0.2 |
| O=C(Cn1c(C(=O)OCCO)cc2ccccc21)c1ccccc1 | 6.8 (≈ 21 µM) |
| Cc1cc(C)c(C#N)c(OCC(=O)Nc2ccccc2)n1 | 31.7 (≈ 113 µM) |
| COc1nc(C)ccc1-c1noc(-c2cccnc2)n1 | 14.6 (≈ 54.4 µM) |
| CC1(c2cccc(Br)c2)NC(=O)N(CC(=O)Nc2ccc3c(c2)OCCO3)C1=O (stereo not drawn) | 67.3 (≈ 146 µM) |
| CN(C)c1ccc(Nc2nc(N)c3ccccc3n2)cc1.Cl | > 47.4 |
| O=C(CN1CCOCC1)NCCc1ccccc1 | > 37.2 |
| CC(C)=CCN1CCN(Cc2ccc(C)s2)CC1CCO (stereo not drawn) | 36.4 (≈ 118 µM) |
| O=C(O)c1ccc(N/C(=N\S(=O)(=O)c2ccc(Cl)cc2)c2ccccc2)cc1 | 56.3 (≈ 136 µM) |
| O=C(Cc1ccc2ccccc2c1)Nc1ccccc1Br | < 0.7 |
| CNC(=O)CSc1nnc(-c2ccco2)n1-c1cc(C)ccc1C | > 51.4 |
| O=Cc1c(NCCc2cccc(F)c2)c2ccccc2[nH]c1=O | 9.3 (≈ 30 µM) |
